Assay results reported in US12604891B2, “Antifoulant marine structures compositions and methods thereof” (THE TEXAS A&M UNIVERSITY SYSTEM, priority 2020, dated 2026).

Key:
Format in all cases: cell-based
Escherichia coli = test: Agar diffusion test, cytotoxic potential (ASTM F895); conditions: antimicrobial composition in wells punched into inoculated agar, 78° F., 24 hours; FIG. 1
Protocol: The instant example evaluated various antimicrobial compositions for cytotoxic potential. Briefly, ASTM […] is a test method useful for assessing the cytotoxic potential of new materials and formulations and as part of a quality control program for established medical devices and components. Qualitative results of the potency of various antimicrobial compositions were evaluated using this test method. […] The testing wells were then compared to one another based on the zone of inhibition of cell or spore growth created for each well. Petri dishes were place in an incubator at 78° F. for 24 hours. The zones of inhibition around each well were then compared and the best two antimicrobial compositions from this example were utilized in subsequent testing.

Staphylococcus aureus = test: Antimicrobial activity under dynamic contact conditions (ASTM E2149-13a), dynamic shaker test, compositions comprising a polymer; conditions: FIG. 3
Protocol: The instant example evaluated various antifoulant compositions for antimicrobial activity under dynamic contact conditions. Briefly, ASTM E2149-13a is a test standard for determining antimicrobial activity of antimicrobial compositions under dynamic contact conditions. The 2×2 inch antifoulant composition samples from Example 1 and Example 2 were placed in sterilized 500 mL flasks with 100 mL of distilled water.
For antifoulant compositions comprising a polymer, Staphylococcus aureus (gram-positive bacteria) were added to each flask at 3×10^6 VC/mL. For antifoulant compositions comprising a composite material, Escherichia coli (gram-negative bacteria) were added to each flask at approximately 1×10^6 cells/mL. Three samples (0.1 mL each) were taken immediately from each flask and spread on TSA plates. The flasks were incubated in a 37° C. shaking incubator at 200 rpm. Three samples (0.1 mL each) were removed and plated at 1 hour intervals for three hours. Plates were left for growth at 25° C. for 60 hours. Colonies were counted using Sphere Flash and the average VC/mL or colony forming units (CFU) were documented.

[1] = system: gram-positive and gram-negative bacteria; test: Laboratory testing, overall comparison of antimicrobials; conditions: summary
From the text: E. coli is a gram-negative bacteria that has a more complicated cell wall structure which makes this bacteria more difficult to penetrate and mitigate. In contrast, S. aureus is a gram positive bacteria and is naturally more susceptible to antimicrobials and, thus, may be easier to control.

| Compound | inhibition of bacterial growth per visible zone of inhibition around the sample (Escherichia coli) | antibacterial efficacy (Staphylococcus aureus; S. aureus, dynamic fluid conditions, antifoulant composition comprising a polymer (HDPE)) | relative antimicrobial efficacy among tested antimicrobials (Staphylococcus aureus; antimicrobials in antifoulant compositions comprising a polymer (HDPE), dynamic flow conditions) | efficacies and performance with both gram-positive and gram-negative bacteria [1] |
| --- | --- | --- | --- | --- |
| zinc pyrithione | demonstrated efficacy in inhibiting bacterial growth | 99.9% | most efficacious | highest efficacies and performance |
| [O]=[Zn] [zinc oxide] | demonstrated efficacy in inhibiting bacterial growth |  |  |  |
